Results as given in publication PMC11570452, “MOTS-c modulates skeletal muscle function by directly binding and activating CK2” (iScience, 2024).
Peptide text beside a SMILES is read from it.

How the values were obtained:
[1] = test system: skeletal muscle (gastrocnemius) glucose uptake; test: In vivo skeletal muscle 2-deoxyglucose (2DG) uptake; design: species or system mouse (C57BL/6J)
Method: 2-deoxyglucose (2-DG) uptake experiment: Male C57BL/6J mice at 14–15 weeks of age were received sham injection (injected nothing) for seven days before the experiment to acclimated to the invasive stimulus by the injection. A selective CK2 inhibitor CX-4945 (MCE) was dissolved in 0.9% saline containing 5% DMSO. After 120 min of fasting, mice were intraperitoneally injected with a CK2 inhibitor at 25 mg/kg or vehicle.[45] Two hours later, mice were injected insulin at 0.75 U/kg (MilliporeSigma) and MOTS-c at 7.5 mg/kg (GenScript) or sterilized water. Then 10 min later, 5 μg of 2DG (Sigma-Aldrich) was injected.[46] Mice were euthanized 45 min after 2DG injection and gastrocnemius muscle was collected. The collected samples were stored at −80°C for further analyses. The entire gastrocnemius muscle was used for the analysis to avoid potential bias.
To measure glucose uptake into mouse skeletal muscle, 2-DG uptake measurement kit was used (Cosmo Bio). Gastrocnemius muscle samples were homogenized in 10 mM tris-HCL (pH. 8.1) and then incubated at 95°C for 15 min. Samples were centrifuged for 15 min at 17,800 g (4°C), and the supernatant was diluted in 10 mM tris-HCl.[66] Diluted samples ([…]) were used for further analysis according to the manufacturer’s instructions (Cosmo Bio Co.).

CK2α = biological target: T1, CK2α (Homo sapiens, UniProt P68400); test: Surface plasmon resonance (Biacore assay), CK2α; assay type: binding; conditions: SPR, peptide immobilized, CK2α flowed
T1 construct: purchased GenScript
T1 sequence (P68400 whole entry): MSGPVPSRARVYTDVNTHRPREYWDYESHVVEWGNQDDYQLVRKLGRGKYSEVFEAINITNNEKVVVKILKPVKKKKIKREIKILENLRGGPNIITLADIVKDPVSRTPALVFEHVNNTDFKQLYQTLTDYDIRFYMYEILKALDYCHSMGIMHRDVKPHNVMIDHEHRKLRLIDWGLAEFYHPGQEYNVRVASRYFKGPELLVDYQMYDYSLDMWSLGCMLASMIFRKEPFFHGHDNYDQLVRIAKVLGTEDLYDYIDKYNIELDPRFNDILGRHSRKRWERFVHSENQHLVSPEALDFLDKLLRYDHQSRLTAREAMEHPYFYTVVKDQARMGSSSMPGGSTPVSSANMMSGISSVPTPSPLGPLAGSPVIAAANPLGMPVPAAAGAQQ
Text: Figure 2 MOTS-c directly binds and activates CK2 in cell-free systems (A–C) Dot blot assays with (A) CK2 complex (contains both CK2α and CK2β subunits) immobilized, MOTS-c flowed over the membrane, and detected by MOTS-c antibody. (B–C) MOTS-c immobilized, CK2 complex flowed over the membrane, and detected by CK2α (B) and CK2β (C) antibodies. (D) CK2α or CK2β immobilized, MOTS-c flowed over the membrane, and detected by MOTS-c antibody. FO, flow over; IB, immunoblotting. (E): Surface plasmon resonance (Biacore assay) of MOTS-c (10 μg/mL) and CK2α (2.5 nM, 5.0 nM, 10 nM, and 20 nM). MOTS-c was immobilized on the sensor chip and CK2α flowed over the sensor chip. KD, dissociation constant. (F) Molecular docking simulation of the binding between MOTS-c and CK2α by using AlphaFold2. (G) CK2 activity assessed by kinase activity assay with/without MOTS-c in cell-free condition. […]
The kinetics of MOTS-c WT/K14Q (GenScript) and CK2α (GenScript)/β (IBL) were assessed by using surface plasmon resonance (Biacore T200, Cytiva). […] Then, since we detected the binding signal only with CK2α, CK2α was flowed (30 μL/min) over the sensor chip at 2.5 nM, 5.0 nM, 10 nM, and 20 nM in running buffer (0.01M HEPES, 0.15 M NaCl, 0.3 mM EDTA, and 0.05% tween). After each concentration of CK2α was assessed, CK2α was removed using 4 mM and 5 mM Sodium Hydroxide for MOTS-c and K14Q MOTS-c, respectively. […]

[2] = Plasma MOTS-c levels after MOTS-c administration; assay type: in vivo, mouse (C57BL/6J); conditions: single IP 7.5 mg/kg, young mice, n = 5 per time point
Method: Figure 3 MOTS-c modulates CK2 activity in a tissue-specific manner (A) Experimental design of a single MOTS-c administration (7.5 mg/kg) experiment in young mice (n = 5 per time point). (B) Plasma MOTS-c levels after MOTS-c administration. ∗: p < 0.05 versus time 0. (C) Quantification of CK2 activity assessed by western blotting in each tissue shown in ([…]). (E–F) CK2 activity assessed by western blotting with p-CK2 substrate antibody in gastrocnemius muscle (D), epididymal fat (E), and liver (F) after MOTS-c administration. ∗p < 0.05, ∗∗p < 0.01 versus time 0 in same tissue. (G–I) MOTS-c detection following CK2α immunoprecipitation (IP) in gastrocnemius muscle (G), epididymal fat (H), and liver (I) 30 min after MOTS-c administration (7.5 mg/kg). The "-" indicates tissues from non-MOTS-c administered mice, while the "+" indicates tissues from MOTS-c administered mice. (J–K) CK2 activity after 10 min MOTS-c treatment (10 μM) in differentiated skeletal muscle (J) and adipocyte (K). Data are represented as mean ± SEM for (B, C, J, and K).
Acute MOTS-c administration experiment: Male C57BL/6J mice at 10–12 weeks of age were randomly assigned to one of the experimental time points: 0 min, 15 min, 30 min, or 180 min. MOTS-c ([…]) was administered by intraperitoneal injection. At each time point, plasma was collected under anesthesia with isoflurane. […]

| SMILES | Muscle glucose uptake, CK2 inhibitor co-administered with MOTS-c ([1]; CX-4945 25 mg/kg + MOTS-c 7.5 mg/kg) | Muscle glucose uptake with CK2 inhibitor alone ([1]; CX-4945 25 mg/kg IP 2 h before insulin 0.75 U/kg, p = 0.053, n = 10-11 per group) | Reciprocal of KD (CK2α) [nM⁻¹] | MOTS-c levels in plasma [2] |
| --- | --- | --- | --- | --- |
| O=C(O)c1ccc2c(c1)nc(Nc1cccc(Cl)c1)c1ccncc12 [CX-4945] | prevented the increase in muscle glucose uptake by MOTS-c | decreased muscle glucose uptake (p = 0.053) | – | – |
| CC[C@H](C)[C@H](NC(=O)[C@H](Cc1ccc(O)cc1)NC(=O)CNC(=O)[C@H](CCSC)NC(=O)[C@H](CCC(=O)O)NC(=O)[C@H](CCC(N)=O)NC(=O)[C@H](Cc1c[nH]c2ccccc12)NC(=O)[C@H](CCCNC(=N)N)NC(=O)[C@@H](N)CCSC)C(=O)N[C@@H](Cc1ccccc1)C(=O)N[C@@H](Cc1ccc(O)cc1)C(=O)N1CCC[C@H]1C(=O)N[C@@H](CCCNC(=N)N)C(=O)N[C@@H](CCC(N)=O)C(=O)N[C@@H](CC(C)C)C(=O)N[C@@H](CCCNC(=N)N)C(=O)O [K14Q MOTS-c] (H-MRWQEMGYIFYPRQLR-OH) | – | – | 0.062 | – |
| CC[C@H](C)[C@H](NC(=O)[C@H](Cc1ccc(O)cc1)NC(=O)CNC(=O)[C@H](CCSC)NC(=O)[C@H](CCC(=O)O)NC(=O)[C@H](CCC(N)=O)NC(=O)[C@H](Cc1c[nH]c2ccccc12)NC(=O)[C@H](CCCNC(=N)N)NC(=O)[C@@H](N)CCSC)C(=O)N[C@@H](Cc1ccccc1)C(=O)N[C@@H](Cc1ccc(O)cc1)C(=O)N1CCC[C@H]1C(=O)N[C@@H](CCCNC(=N)N)C(=O)N[C@@H](CCCCN)C(=O)N[C@@H](CC(C)C)C(=O)N[C@@H](CCCNC(=N)N)C(=O)O [MOTS-c] (H-MRWQEMGYIFYPRKLR-OH) | – | – | 1.0 | increased MOTS-c levels in plasma |
